Data from patent US20250368714A1, “TREATMENT OF CANCER” (Immutep S.A.S., priority 2022, published 2025).
Like-named read-outs stand apart in the source and are kept apart here.

How the values were obtained:
[1] = system: Patients with HR+ HER2-Neg/Low after Failure of ET Based Therapy; settings: No prior CDK4/6; cited from earlier work
[2] = system: Patients with HR+ HER2-Neg/Low after Failure of ET Based Therapy; test: Efficacy of single agent chemotherapy after failure of ET based therapy; assay type: in vivo, human; settings: Prior CDK4/6
Text: Efficacy of Single Agent Chemotherapy for Patients with HR^+ HER2-Neg/Low after Failure of ET Based Therapy

[3] = system: HER2 negative hormone receptor-positive metastatic breast cancer patients; test: AIPAC Phase IIb study: paclitaxel+IMP321 vs paclitaxel+placebo, overall survival; assay type: in vivo, human; settings: AIPAC paclitaxel plus placebo group
Method: A multicentre, placebo-controlled, double-blind, 1:1 randomised Phase IIb study in female HER2 negative hormone receptor-positive metastatic breast cancer patients was conducted. The study comprised two stages: • stage 1 which was an open-label, safety run-in stage consisting of cohorts 1 and 2 to confirm the recommended Phase II dose (RPTD) of IMP321 in combination with paclitaxel; and • stage 2 which was a placebo-controlled, double-blind randomisation stage, paclitaxel+IMP321 at the RPTD compared to paclitaxel+placebo.
The chemo-immunotherapy phase consisted of 6 cycles of 4 weeks. Patients received weekly paclitaxel at Days 1, 8 and 15 with adjunctive treatment of study agent (IMP321) on Days 2 and 16 of each 4-week cycle. After completion of the 6-cycle chemo-immunotherapy phase, responding or stable patients received study agent (IMP321) every 4 weeks during the maintenance phase for an additional period of up to 12 injections.
The chemo-immunotherapy phase consisted of 6 cycles of 4 weeks. Patients received weekly paclitaxel at Days 1, 8 and 15 with adjunctive treatment of study agent (placebo) on Days 2 and 16 of each 4-week cycle.
After completion of the 6-cycle chemo-immunotherapy phase, responding or stable patients received study agent (placebo) every 4 weeks during the maintenance phase for an additional period of up to 12 injections. […]

[4] = system: unresectable locally advanced or metastatic PD-L1 positive TNBC; settings: PD-L1 inhibitor plus paclitaxel; cited from earlier work
[5] = system: locally recurrent unresectable or metastatic TNBC; settings: patients with CPS of 10 or more; cut-off Dec. 11, 2019; placebo-chemotherapy 5.6; cited from earlier work

Compound: CCCCCOC(=O)Nc1nc(=O)n([C@@H]2O[C@H](C)[C@@H](O)[C@H]2O)cc1F [Capecitabine, capecitabine]
- ORR (%) [1]: 19-30%
- OS (months) [1]: 9.3-18 months
- PFS (months) [1]: 2.8-5.9 months

Compound: CC(=O)O[C@H]1C(=O)[C@@]2(C)[C@H]([C@H](OC(=O)c3ccccc3)[C@]3(O)C[C@H](OC(=O)[C@H](O)[C@@H](NC(=O)c4ccccc4)c4ccccc4)C(C)=C1C3(C)C)[C@]1(OC(C)=O)CO[C@@H]1C[C@@H]2O [Paclitaxel, paclitaxel]
- ORR (%) [1]: 21-51%
- OS (months) [1]: 20.4-25.8 months
- PFS (months) [1]: 5.9-8.8 months
- ORR (%) [2]: 36%
- OS (months) [2]: 14.9 months
- PFS (months) [2]: 6.7 months
- OS ([3]; no prior CDK4/6 therapy): 20.4 months
- median OS ([3]; patients pre-treated with CDK4/6): 14.9 months

Compound: atezolizumab: PD-L1 inhibitor tested plus paclitaxel in IMpassion131
- PFS over paclitaxel alone [4]: did not demonstrate a statistically significant improvement in PFS

Compound: pembrolizumab-chemotherapy: pembrolizumab in combination with chemotherapy (paclitaxel, nab-paclitaxel, or carboplatin-gemcitabine), KEYNOTE-355
- median PFS [5]: 9.7 months
